How the values were obtained:
[1] = molecular target: human recombinant 5-HT2Cedited receptor (Homo sapiens, UniProt P28335, I156V/I160V/N158S); assay: cell-based
[2] = molecular target: 5-HT2Cedited (accession number AAF35842.1) (Homo sapiens, UniProt P28335, I156V/I160V/N158S); assay: biochemical; type: binding
Sequence of 5-HT2Cedited (accession number AAF35842.1) (P28335 whole entry I156V/N158S/I160V, looked up): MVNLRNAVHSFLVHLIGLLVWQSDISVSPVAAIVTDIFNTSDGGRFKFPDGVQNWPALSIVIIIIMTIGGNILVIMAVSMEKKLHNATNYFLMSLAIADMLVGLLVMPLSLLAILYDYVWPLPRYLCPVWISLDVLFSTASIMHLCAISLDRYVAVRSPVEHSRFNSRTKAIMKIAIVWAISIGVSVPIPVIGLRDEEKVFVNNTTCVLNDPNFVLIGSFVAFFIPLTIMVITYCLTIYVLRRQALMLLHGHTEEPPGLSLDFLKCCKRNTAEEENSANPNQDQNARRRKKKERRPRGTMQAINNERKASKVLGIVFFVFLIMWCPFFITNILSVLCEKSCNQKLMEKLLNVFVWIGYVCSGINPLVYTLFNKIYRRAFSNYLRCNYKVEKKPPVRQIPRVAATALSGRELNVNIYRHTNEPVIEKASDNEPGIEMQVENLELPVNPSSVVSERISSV

Sequence of human recombinant 5-HT2Cedited receptor (P28335 33-458 I156V/N158S/I160V limits assumed): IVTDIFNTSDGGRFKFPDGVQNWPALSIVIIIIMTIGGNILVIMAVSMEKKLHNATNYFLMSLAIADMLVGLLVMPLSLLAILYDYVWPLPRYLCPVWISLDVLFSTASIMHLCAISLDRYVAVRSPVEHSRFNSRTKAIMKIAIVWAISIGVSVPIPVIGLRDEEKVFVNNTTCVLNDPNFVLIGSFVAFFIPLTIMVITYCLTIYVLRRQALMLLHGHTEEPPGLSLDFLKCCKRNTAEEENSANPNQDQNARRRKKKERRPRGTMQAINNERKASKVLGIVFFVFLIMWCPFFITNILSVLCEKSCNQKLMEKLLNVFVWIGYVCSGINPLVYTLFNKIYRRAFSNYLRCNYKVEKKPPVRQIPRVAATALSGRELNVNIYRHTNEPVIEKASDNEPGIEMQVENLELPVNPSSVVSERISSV

Row | Compound | EC50 [1] | IC50 [2]
1 | Cn1c2c(c3ccccc31)CCN1CCCC1C2 (stereo not drawn) [Compound 3, 11-methyl-1,2,3,5,6,11,12,12a-octahydropyrrolo[1′,2′:1,2]azepino[4,5-b]indole] | 101 to 1000 nM | 101 to 1000 nM
2 | COc1ccc2c3c([nH]c2c1)C[C@H]1CCCN1CC3 [Compound 18, (R)-9-methoxy-1,2,3,5,6,11,12,12a-octahydropyrrolo[1′,2′:1,2]azepino[4,5-b]indole] | > 10000 nM | 1000 to 10000 nM
3 | COc1cccc2[nH]c3c(c12)CC1CCCN1CC3 (stereo not drawn) [Compound 5, 11-methoxy-1,2,3,5,6,7,12,12a-octahydropyrrolo[1′,2′:1,7]azepino[4,5-b]indole] | 1000 to 10000 nM | 101 to 1000 nM
4 | c1ccc2c3c([nH]c2c1)CCN1CCC[C@@H]1C3 [Compound 22, (R)-1,2,3,5,6,7,12,12a-octahydropyrrolo[1′,2′:1,7]azepino[4,5-b]indole] | 101 to 1000 nM | 101 to 1000 nM
5 | c1ccc2c3c([nH]c2c1)C[C@H]1CCCN1CC3 [Compound 20, (R)-1,2,3,5,6,11,12,12a-octahydropyrrolo[1′,2′:1,2]azepino[4,5-b]indole] | 10 to 100 nM | 101 to 1000 nM
6 | c1ccc2c3c([nH]c2c1)C[C@@H]1CCCN1CC3 [Compound 19, (S)-1,2,3,5,6,11,12,12a-octahydropyrrolo[1′,2′:1,2]azepino[4,5-b]indole] | 101 to 1000 nM | 101 to 1000 nM
7 | COc1cccc2[nH]c3c(c12)C[C@H]1CCCN1CC3 [Compound 26, (R)-11-methoxy-1,2,3,5,6,7,12,12a-octahydropyrrolo[1′,2′:1,7]azepino[4,5-b]indole] | 10 to 100 nM | 10 to 100 nM
8 | FC(F)(F)Oc1ccc2c3c([nH]c2c1)CC1CCCN1CC3 (stereo not drawn) [Compound 13, 9-(trifluoromethoxy)-1,2,3,5,6,11,12,12a-octahydropyrrolo[1′,2′;1,2]azepino[4,5-b]indole] | > 10000 nM | 1000 to 10000 nM
9 | FC(F)(F)c1cccc2[nH]c3c(c12)CC1CCCN1CC3 (stereo not drawn) [Compound 28, 11-(trifluoromethyl)-1,2,3,5,6,7,12,12a-octahydropyrrolo[1′,2′:1,7]azepino[4,5-b]indole] | 101 to 1000 nM | 10 to 100 nM
10 | c1ccc2c3c([nH]c2c1)CCN1CCCC1C3 (stereo not drawn) [Compound 7, 1,2,3,5,6,7,12,12a-octahydropyrrolo[1′,2′:1,7]azepino[4,5-b]indole] | 101 to 1000 nM | 101 to 1000 nM
11 | FC(F)(F)c1ccc2c3c([nH]c2c1)CC1CCCN1CC3 (stereo not drawn) [Compound 12, 9-(trifluoromethyl)-1,2,3,5,6,11,12,12a-octahydropyrrolo[1′,2′:1,2]azepino[4,5-b]indole] | > 10000 nM | 1000 to 10000 nM
12 | COc1ccc2c3c([nH]c2c1)CCN1CCC[C@@H]1C3 [Compound 24, (R)-9-methoxy-1,2,3,5,6,7,12,12a-octahydropyrrolo[1′,2′:1,7]azepino[4,5-b]indole] | 1000 to 10000 nM | 1000 to 10000 nM
13 | COc1ccc2c3c([nH]c2c1)C[C@@H]1CCCN1CC3 [Compound 17, (S)-9-methoxy-1,2,3,5,6,11,12,12a-octahydropyrrolo[1′,2′:1,2]azepino[4,5-b]indole] | > 10000 nM | 1000 to 10000 nM
14 | c1ccc2c3c([nH]c2c1)CCN1CCC[C@H]1C3 [Compound 23, (S)-1,2,3,5,6,7,12,12a-octahydropyrrolo[1′,2′:1,7]azepino[4,5-b]indole] | 101 to 1000 nM | 101 to 1000 nM
15 | COc1ccc2c3c([nH]c2c1)CCN1CCCC1C3 (stereo not drawn) [Compound 1, 9-methoxy-1,2,3,5,6,7,12,12a-octahydropyrrolo[1′,2′:1,7]azepino[4,5-b]indole] | > 10000 nM | 1000 to 10000 nM
16 | COc1ccc2c3c([nH]c2c1)CCN1CCC[C@H]1C3 [Compound 25, (S)-9-methoxy-1,2,3,5,6,7,12,12a-octahydropyrrolo[1′,2′:1,7]azepino[4,5-b]indole] | 1000 to 10000 nM | 1000 to 10000 nM
17 | COc1ccc2c3c([nH]c2c1)CC1CCCN1CC3 (stereo not drawn) [Compound 2, 9-methoxy-1,2,3,5,6,11,12,12a-octahydropyrrolo[1′,2′:1,2]azepino[4,5-b]indole] | 1000 to 10000 nM | 1000 to 10000 nM
18 | COc1cccc2[nH]c3c(c12)C[C@@H]1CCCN1CC3 [Compound 27, (S)-11-methoxy-1,2,3,5,6,7,12,12a-octahydropyrrolo[1′,2′:1,7]azepino[4,5-b]indole] | 101 to 1000 nM | 101 to 1000 nM
19 | Cn1c2c(c3ccccc31)CC1CCCN1CC2 (stereo not drawn) [Compound 6, 7-methyl-1,2,3,5,6,7,12,12a-octahydropyrrolo[1′,2′:1,7]azepino[4,5-b]indole] | 101 to 1000 nM | 101 to 1000 nM
20 | FC(F)(F)c1cccc2[nH]c3c(c12)CCN1CCCC1C3 (stereo not drawn) [Compound 21, 7-(trifluoromethyl)-1,2,3,5,6,11,12,12a-octahydropyrrolo[1′,2′:1,2]azepino[4,5-b]indole] | 101 to 1000 nM | 101 to 1000 nM
21 | c1ccc2c3c([nH]c2c1)CC1CCCN1CC3 (stereo not drawn) [Compound 4, 1,2,3,5,6,11,12,12a-octahydropyrrolo[1′,2′;1,2]azepino[4,5-b]indole] | 101 to 1000 nM | 101 to 1000 nM

— patent US20260176253A1 (priority 2021, published 2026)
